# Reference: ChEMBL document CHEMBL1201862, “PubChem BioAssay data set” (2004)
#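 The compound was tested at five concentrations on cells cultured in 96-well plates, with a 48-hour exposure period. GI50 marks 50% less growth.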 Calls of active or inactive are those of the source. No stated cut-off is given here; in the data, active = GI50 up to about 1.1 µM and inactive = higher.
# Key:
# Test in all cases: inhibition of tumour cell growth, NCI panel, 48 h
# M14 = system: M14
# HT-29 = system: HT-29
# HL-60 = system: HL-60
# IGROV-1 = system: IGROV-1
# CAKI-1 = system: CAKI-1
# PC-3 = system: PC-3
# MOLT-4 = system: MOLT-4
# OVCAR-5 = system: OVCAR-5
# U-251 = system: U-251
# ACHN = system: ACHN
# COLO 205 = system: COLO 205
# DU-145 = system: DU-145
# NCI-H522 = system: NCI-H522
# SK-MEL-2 = system: SK-MEL-2
# SR = system: SR
# SK-MEL-28 = system: SK-MEL-28
# RPMI-8226 = system: RPMI-8226
# SF-539 = system: SF-539
# HCT-15 = system: HCT-15
# MDA-N = system: MDA-N
# SNB-75 = system: SNB-75
# SK-OV-3 = system: SK-OV-3
# EKVX = system: EKVX
# T47D = system: T47D
# UACC-257 = system: UACC-257
# CCRF-CEM = system: CCRF-CEM
# TK-10 = system: TK-10
# LOX IMVI = system: LOX IMVI
# A549 = system: A549
# HCT-116 = system: HCT-116
# Malme-3M = system: Malme-3M
# HOP-62 = system: HOP-62
# 786-0 = system: 786-0
# BT-549 = system: BT-549
# RXF 393 = system: RXF 393
# OVCAR-3 = system: OVCAR-3
# SW-620 = system: SW-620
# NCI-H226 = system: NCI-H226
# UO-31 = system: UO-31
# Hs-578T = system: Hs-578T
# KM12 = system: KM12
# MDA-MB-231 = system: MDA-MB-231
# OVCAR-4 = system: OVCAR-4
# OVCAR-8 = system: OVCAR-8
# UACC-62 = system: UACC-62
# HOP-92 = system: HOP-92
# SF-268 = system: SF-268
# SF-295 = system: SF-295
# NCI-H23 = system: NCI-H23
# NCI/ADR-RES = system: NCI/ADR-RES
# HCC 2998 = system: HCC 2998
# SN12C = system: SN12C
# MDA-MB-435 = system: MDA-MB-435
# MCF7 = system: MCF7
# SNB-19 = system: SNB-19
# SK-MEL-5 = system: SK-MEL-5
# K562 = system: K562
# A498 = system: A498
# NCI-H460 = system: NCI-H460
compound,measurement,setting,value
O=C1NC(N2CCOCC2)=N/C1=C\c1ccc(O)cc1,GI50,M14,> 100 µM (inactive)
same,GI50,HT-29,> 100 µM (inactive)
same,GI50,HL-60,> 100 µM (inactive)
same,GI50,IGROV-1,> 100 µM (inactive)
same,GI50,CAKI-1,> 100 µM (inactive)
same,GI50,PC-3,> 100 µM (inactive)
same,GI50,MOLT-4,> 100 µM (inactive)
same,GI50,OVCAR-5,> 100 µM (inactive)
same,GI50,U-251,> 100 µM (inactive)
same,GI50,ACHN,> 100 µM (inactive)
same,GI50,COLO 205,> 100 µM (inactive)
same,GI50,DU-145,> 100 µM (inactive)
same,GI50,NCI-H522,16.4 µM (inactive)
same,GI50,SK-MEL-2,> 100 µM (inactive)
same,GI50,SR,> 100 µM (inactive)
same,GI50,SK-MEL-28,> 100 µM (inactive)
same,GI50,RPMI-8226,> 100 µM (inactive)
same,GI50,SF-539,> 100 µM (inactive)
same,GI50,HCT-15,> 100 µM
same,GI50,MDA-N,> 100 µM (inactive)
same,GI50,SNB-75,15.7 µM (inactive)
same,GI50,SK-OV-3,> 100 µM (inactive)
same,GI50,EKVX,> 100 µM (inactive)
same,GI50,T47D,> 100 µM (inactive)
same,GI50,UACC-257,> 100 µM (inactive)
same,GI50,CCRF-CEM,> 100 µM (inactive)
same,GI50,TK-10,> 100 µM (inactive)
same,GI50,LOX IMVI,> 100 µM (inactive)
same,GI50,A549,> 100 µM (inactive)
same,GI50,HCT-116,> 100 µM (inactive)
same,GI50,Malme-3M,> 100 µM (inactive)
same,GI50,HOP-62,> 100 µM (inactive)
same,GI50,786-0,> 100 µM (inactive)
same,GI50,BT-549,> 100 µM (inactive)
same,GI50,RXF 393,> 100 µM (inactive)
same,GI50,OVCAR-3,> 100 µM (inactive)
same,GI50,SW-620,> 100 µM (inactive)
same,GI50,NCI-H226,> 100 µM (inactive)
same,GI50,UO-31,> 100 µM (inactive)
same,GI50,Hs-578T,4.84 µM (inactive)
same,GI50,KM12,> 100 µM (inactive)
same,GI50,MDA-MB-231,> 100 µM (inactive)
same,GI50,OVCAR-4,> 100 µM (inactive)
same,GI50,OVCAR-8,> 100 µM (inactive)
same,GI50,UACC-62,> 100 µM (inactive)
same,GI50,HOP-92,> 100 µM (inactive)
same,GI50,SF-268,> 100 µM (inactive)
same,GI50,SF-295,> 100 µM (inactive)
same,GI50,NCI-H23,> 100 µM (inactive)
same,GI50,NCI/ADR-RES,> 100 µM (inactive)
same,GI50,HCC 2998,> 100 µM (inactive)
same,GI50,SN12C,> 100 µM (inactive)
same,GI50,MDA-MB-435,> 100 µM (inactive)
same,GI50,MCF7,> 100 µM (inactive)
same,GI50,SNB-19,> 100 µM (inactive)
N/N=C1\C(OC(=O)Nc2ccccc2)=Nc2ccccc21,GI50,M14,13.4 µM (inactive)
same,GI50,HT-29,30.5 µM (inactive)
same,GI50,IGROV-1,14.8 µM (inactive)
same,GI50,CAKI-1,14.9 µM (inactive)
same,GI50,PC-3,15.4 µM (inactive)
same,GI50,SK-MEL-5,14.2 µM (inactive)
same,GI50,OVCAR-5,45.1 µM (inactive)
same,GI50,U-251,16 µM (inactive)
same,GI50,ACHN,15.1 µM (inactive)
same,GI50,COLO 205,17.3 µM (inactive)
same,GI50,DU-145,10.8 µM (inactive)
same,GI50,NCI-H522,13.7 µM (inactive)
same,GI50,K562,40.3 µM (inactive)
same,GI50,SK-MEL-2,19.7 µM (inactive)
same,GI50,SR,25.6 µM (inactive)
same,GI50,SK-MEL-28,60 µM (inactive)
same,GI50,RPMI-8226,10.3 µM (inactive)
same,GI50,SF-539,15.6 µM (inactive)
same,GI50,HCT-15,26.5 µM
same,GI50,MDA-N,19.1 µM (inactive)
same,GI50,SNB-75,22.8 µM (inactive)
same,GI50,SK-OV-3,19.8 µM (inactive)
same,GI50,EKVX,18.2 µM (inactive)
same,GI50,T47D,10.9 µM (inactive)
same,GI50,UACC-257,29.7 µM (inactive)
same,GI50,TK-10,23 µM (inactive)
same,GI50,LOX IMVI,14.5 µM (inactive)
same,GI50,A549,17 µM (inactive)
same,GI50,HCT-116,14.2 µM (inactive)
same,GI50,Malme-3M,13.2 µM (inactive)
same,GI50,HOP-62,18.6 µM (inactive)
same,GI50,786-0,16.4 µM (inactive)
same,GI50,BT-549,11.7 µM (inactive)
same,GI50,RXF 393,15.4 µM (inactive)
same,GI50,A498,17.1 µM (inactive)
same,GI50,OVCAR-3,11.2 µM (inactive)
same,GI50,SW-620,31.9 µM (inactive)
same,GI50,NCI-H226,16.8 µM (inactive)
same,GI50,UO-31,12.7 µM (inactive)
same,GI50,Hs-578T,36.2 µM (inactive)
same,GI50,KM12,13.1 µM (inactive)
same,GI50,MDA-MB-231,18.6 µM (inactive)
same,GI50,OVCAR-4,12.8 µM (inactive)
same,GI50,OVCAR-8,12.1 µM (inactive)
same,GI50,UACC-62,14.8 µM (inactive)
same,GI50,NCI-H460,10.9 µM (inactive)
same,GI50,HOP-92,15.2 µM (inactive)
same,GI50,SF-268,36.1 µM (inactive)
same,GI50,SF-295,14 µM (inactive)
same,GI50,NCI-H23,15.1 µM (inactive)
same,GI50,NCI/ADR-RES,30.3 µM (inactive)
same,GI50,HCC 2998,15.3 µM (inactive)
same,GI50,SN12C,19.2 µM (inactive)
same,GI50,MDA-MB-435,14.4 µM (inactive)
same,GI50,MCF7,9.93 µM (inactive)
same,GI50,SNB-19,26.8 µM (inactive)
c1ccc(-c2nc3ccccc3n3c(CN4CCCCC4)nnc23)cc1,GI50,M14,> 100 µM (inactive)
same,GI50,HT-29,> 100 µM (inactive)
same,GI50,IGROV-1,47.9 µM (inactive)
same,GI50,CAKI-1,> 100 µM (inactive)
same,GI50,PC-3,> 100 µM (inactive)
same,GI50,MOLT-4,> 100 µM (inactive)
same,GI50,SK-MEL-5,> 100 µM (inactive)
same,GI50,OVCAR-5,> 100 µM (inactive)
same,GI50,U-251,47 µM (inactive)
same,GI50,ACHN,28.7 µM (inactive)
same,GI50,COLO 205,> 100 µM (inactive)
same,GI50,DU-145,> 100 µM (inactive)
same,GI50,NCI-H522,> 100 µM (inactive)
same,GI50,K562,> 100 µM (inactive)
same,GI50,SK-MEL-2,35.1 µM (inactive)
same,GI50,SR,> 100 µM (inactive)
same,GI50,SK-MEL-28,> 100 µM (inactive)
same,GI50,RPMI-8226,> 100 µM (inactive)
same,GI50,SF-539,51.3 µM (inactive)
same,GI50,HCT-15,> 100 µM
same,GI50,MDA-N,> 100 µM (inactive)
same,GI50,SNB-75,19.2 µM (inactive)
same,GI50,SK-OV-3,47.3 µM (inactive)
same,GI50,EKVX,93.5 µM (inactive)
same,GI50,T47D,54.5 µM (inactive)
same,GI50,UACC-257,> 100 µM (inactive)
same,GI50,CCRF-CEM,> 100 µM (inactive)
same,GI50,TK-10,35.2 µM (inactive)
same,GI50,LOX IMVI,> 100 µM (inactive)
same,GI50,A549,> 100 µM (inactive)
same,GI50,HCT-116,> 100 µM (inactive)
same,GI50,Malme-3M,> 100 µM (inactive)
same,GI50,HOP-62,28.5 µM (inactive)
same,GI50,786-0,37.3 µM (inactive)
same,GI50,BT-549,80.2 µM (inactive)
same,GI50,RXF 393,35.7 µM (inactive)
same,GI50,A498,60 µM (inactive)
same,GI50,OVCAR-3,> 100 µM (inactive)
same,GI50,SW-620,> 100 µM (inactive)
same,GI50,NCI-H226,> 100 µM (inactive)
same,GI50,Hs-578T,69.2 µM (inactive)
same,GI50,MDA-MB-231,60 µM (inactive)
same,GI50,OVCAR-4,> 100 µM (inactive)
same,GI50,OVCAR-8,99.3 µM (inactive)
same,GI50,UACC-62,> 100 µM (inactive)
same,GI50,NCI-H460,> 100 µM (inactive)
same,GI50,HOP-92,31.2 µM (inactive)
same,GI50,SF-268,49.5 µM (inactive)
same,GI50,SF-295,49.4 µM (inactive)
same,GI50,NCI/ADR-RES,> 100 µM (inactive)
same,GI50,HCC 2998,> 100 µM (inactive)
same,GI50,SN12C,> 100 µM (inactive)
same,GI50,MDA-MB-435,> 100 µM (inactive)
same,GI50,MCF7,> 100 µM (inactive)
same,GI50,SNB-19,36.2 µM (inactive)
